# According to patent publication US20210393645A1, “TREATMENT FOR PROGRESSIVE MULTIPLE SCLEROSIS” (UTI LIMITED PARTNERSHIP, priority 2016, published 2021):
# Where a name gives a salt, the structure may show the parent alone.
# Tested on: human neurons
# Experiment: Iron (FeSO4) mediated neurotoxicity screening, MAP-2 positive neurons counted
# Assay type: cell-based
# Details: not given
# Method: Human neurons were isolated from brain tissues of therapeutically aborted 15-20 week old fetuses, in accordance with ethics approval of the University of Calgary ethics committee, after written informed consent of the pregnant donors. Neurons were isolated as previously described (Vecil et al., 2000) brain specimens were washed in phosphate buffered saline (PBS) to remove blood, followed by removal of meninges. […] Thereafter, the digestion was stopped by addition of 4 ml fetal calf serum (FCS). […] Cells were cultured in feeding medium of minimal essential medium (MEM) supplemented with 10% fetal bovine serum (FBS), 1 μM sodium pyruvate, 10 μM glutamine, 1× non-essential amino acids, 0.1% dextrose and 1% penicillin/streptomycin (all culture supplements from Invitrogen, Burlington, Canada). […] For experiments, the neuron-enriched cultures were retrypsinized and cells were plated in poly-L-ornithine pre-coated 96-well plates at a density of 100,000 cells/well in 100 μl of the complete medium supplemented with cytosine arabinoside. […] All conditions were performed in quadruplicates. A day later cells were fixed using 4% paraformaldehyde (PFA) and stored in PBS in 4° C.
# Briefly, there were 80 compounds located in specific wells on each plate (e. g. B07). […] Each compound was supplied at a concentration of 10 mM dissolved in DMSO.
# After filtering with a 0.2 μm filter, FeSO4 was added to cells in a final concentration of 25-50 μM in a volume of 50 μl medium to the cells. Rotenone was dissolved in dimethyl sulfoxide (DMSO) and used in a final concentration of 10 μM.
# Staining was performed at room temperature. A blocking buffer was first introduced for 1 h followed by incubation with primary antibody overnight in 4° C.
# Cell nuclei were stained with Hoechst S769121 (nuclear yellow). Cells were stored in 4° C. in the dark before imaging.
# Images were taken using the automated ImageXpress® imaging system (Molecular Devices, Sunnyvale, Calif.) through a 10x objective microscope lens, displaying 4 or 9 sites per well. […] Cells were defined according to fluorescence intensity and size at different wavelengths. Data from all sites per well were averaged to one data point.
# Neurons were pre-incubated with each compound for 1 h followed by application of FeSO4.
row,SMILES,Drug % control (mean): number of neurons normalized to untreated control [%]
1,N[C@@H]1C[C@H]1c1ccccc1.N[C@H]1C[C@@H]1c1ccccc1.O=S(=O)(O)O [TRANYLCYPROMINE SULFATE],21.59

# Same assay, conditions: Homo sapiens, Neuron, 24 h, read-out: Drug % control (mean): number of neurons normalized to untreated control
row,SMILES,viability at 10 µM [%]
1,Cn1c(=O)c2[nH]cnc2n(C)c1=O [THEOPHYLLINE],23.3
2,CN1[C@@H]2CC[C@H]1C[C@@H](OC(c1ccccc1)c1ccccc1)C2 [BENZTROPINE],11.4
3,CO[C@H]1/C=C/O[C@@]2(C)Oc3c(C)c(O)c4c(O)c(c(/C=N/N5CCN(C)CC5)c(O)c4c3C2=O)NC(=O)/C(C)=C\C=C\[C@H](C)[C@H](O)[C@@H](C)[C@@H](O)[C@@H](C)[C@H](OC(C)=O)[C@@H]1C [RIFAMPIN],95.5
4,O=C(O)c1cn(C2CC2)c2cc(N3CCNCC3)c(F)cc2c1=O [CIPROFLOXACIN],41

# Same assay, conditions: Homo sapiens, Neuron; drug 10 μM 1 h before FeSO4 25 or 50 μM; MAP-2 neurons after 24 h; read-out: Drug % control (mean): number of neurons normalized to untreated control
row,SMILES,viability at 10 µM [%]
1,CCOC(=O)N1CCC(=C2c3ccc(Cl)cc3CCc3cccnc32)CC1 [LORATADINE],44.3
2,CCOC(=O)[C@H](CCc1ccccc1)N[C@@H](C)C(=O)N1Cc2ccccc2C[C@H]1C(=O)O [QUINAPRIL HYDROCHLORIDE],41.5
3,CC1(C)S[C@@H]2[C@H](NC(=O)[C@H](N)c3ccc(O)cc3)C(=O)N2[C@H]1C(=O)O [AMOXICILLIN],6.41
4,COc1ccc(Cl)cc1C(=O)NCCc1ccc(S(=O)(=O)NC(=O)NC2CCCCC2)cc1 [GLYBURIDE],45.2
5,OCCN1CCN(CCCN2c3ccccc3Sc3ccc(Cl)cc32)CC1 [PERPHENAZINE],78.8
6,CC(C(=O)O)c1ccc(-c2ccccc2)c(F)c1 (stereo not shown) [FLURBIPROFEN],4.63
7,CC(=O)CCCCn1c(=O)c2c(ncn2C)n(C)c1=O [PENTOXIFYLLINE],66.5
8,CC[N+](C)(C)c1cccc(O)c1 [EDROPHONIUM CHLORIDE],44
9,Cc1ccc(C)c(OCCCC(C)(C)C(=O)O)c1 [GEMFIBROZIL],5.05
10,COc1ccccc1OCC(O)COC(N)=O (stereo not shown) [METHOCARBAMOL],0.84
11,Cc1cc(NS(=O)(=O)c2ccc(N)cc2)no1 [SULFAMETHOXAZOLE],16.2
12,CCC[C@H](N[C@@H](C)C(=O)N1[C@H](C(=O)O)C[C@@H]2CCCC[C@@H]21)C(=O)OCC [PERINDOPRIL ERBUMINE],49.4
13,Cc1ccccc1C(OCCN(C)C)c1ccccc1 (stereo not shown) [ORPHENADRINE CITRATE],54.5
14,Nc1cc(N2CCCCC2)nc(N)[n+]1[O-] [MINOXIDIL],33.7
15,CN/C(=N/CCSCc1nc[nH]c1C)NC#N [CIMETIDINE],34.4
16,Cc1cnc(NC(=O)C2=C(O)c3ccccc3S(=O)(=O)N2C)s1 [MELOXICAM],59.5
17,CCc1ccc(CCOc2ccc(CC3SC(=O)NC3=O)cc2)nc1 (stereo not shown) [PIOGLITAZONE HYDROCHLORIDE],84.6
18,CC(C(=O)O)c1cccc(C(=O)c2ccccc2)c1 (stereo not shown) [KETOPROFEN],44.3
19,CC(=O)Nc1ccc(O)cc1 [ACETAMINOPHEN],35.1
20,C[C@@H](CO)NC(=O)[C@@H]1C=C2c3cccc4[nH]cc(c34)C[C@H]2N(C)C1 [ERGONOVINE MALEATE],42.7
21,N=C(N)NC(=O)c1nc(Cl)c(N)nc1N [AMILORIDE HYDROCHLORIDE],37.1
22,CC1(C)O[C@@H]2[C@@H](CO[C@@]3(COS(N)(=O)=O)OC(C)(C)O[C@@H]23)O1 [TOPIRAMATE],46.1
23,CC(=O)N[C@@H](CS)C(=O)O [ACETYLCYSTEINE],21.7

row,SMILES,viability at 10 µM [%]
1,C1N2CN3CN1CN(C2)C3 [METHENAMINE],1.94
2,Cc1ccccc1N1C(=O)c2cc(S(N)(=O)=O)c(Cl)cc2NC1C (stereo not shown) [METOLAZONE],69
3,CC[C@H]1OC(=O)[C@H](C)[C@@H](O[C@H]2C[C@@](C)(OC)[C@@H](O)[C@H](C)O2)[C@H](C)[C@@H](O[C@@H]2O[C@H](C)C[C@H](N(C)C)[C@H]2O)[C@](C)(OC)C[C@@H](C)C(=O)[C@H](C)[C@@H](O)[C@]1(C)O [CLARITHROMYCIN],55.1
4,C[C@@H]1O[C@@H]1P(=O)(O)O [FOSFOMYCIN],31.2
5,NC(=O)N1c2ccccc2C=Cc2ccccc21 [CARBAMAZEPINE],13.3
6,NCC(CC(=O)O)c1ccc(Cl)cc1 (stereo not shown) [BACLOFEN],35.8
7,C[C@H]1COc2c(N3CCN(C)CC3)c(F)cc3c(=O)c(C(=O)O)cn1c23 [LEVOFLOXACIN],56.4
8,CS(=O)(=O)OCCCCOS(C)(=O)=O [BUSULFAN],13.3
9,OCCN1CCN(CCCN2c3ccccc3Sc3ccc(C(F)(F)F)cc32)CC1 [FLUPHENAZINE HYDROCHLORIDE],12.1
10,O=C(O)Cc1ccccc1Nc1c(Cl)cccc1Cl [DICLOFENAC SODIUM],5.92
11,C#C[C@]1(O)CC[C@H]2[C@@H]3CCC4=Cc5oncc5C[C@]4(C)[C@H]3CC[C@@]21C [DANAZOL],4.37
12,CN1CCN(C2=Nc3cc(Cl)ccc3Nc3ccccc32)CC1 [CLOZAPINE],101
13,O=C1C(CC[S+]([O-])c2ccccc2)C(=O)N(c2ccccc2)N1c1ccccc1 (stereo not shown) [SULFINPYRAZONE],46.5
14,CCc1cccc2c3c([nH]c12)C(CC)(CC(=O)O)OCC3 (stereo not shown) [ETODOLAC],34.4
15,COc1c(C)c2c(c(O)c1C/C=C(\C)CCC(=O)O)C(=O)OC2 [MYCOPHENOLIC ACID],45.7
16,CC(C)Cc1ccc(C(C)C(=O)O)cc1 (stereo not shown) [IBUPROFEN],2.48
17,CC(C)(Oc1ccc(CCNC(=O)c2ccc(Cl)cc2)cc1)C(=O)O [BEZAFIBRATE],35.5
18,CCC(=O)O[C@H]1[C@H](O[C@@H]2[C@@H](C)[C@H](O[C@H]3C[C@@](C)(OC)[C@@H](O)[C@H](C)O3)[C@@H](C)C(=O)O[C@H](CC)[C@@](C)(O)[C@H](O)[C@@H](C)C(=O)[C@H](C)C[C@@]2(C)O)O[C@H](C)C[C@@H]1N(C)C [ERYTHROMYCIN ESTOLATE],56.7
19,CN(C)C(=O)Oc1cccc([N+](C)(C)C)c1 [NEOSTIGMINE BROMIDE],44.8
20,CO[C@H]1/C=C/O[C@@]2(C)Oc3c(C)c(O)c4c(O)c(c5c(nc6cc(C)ccn65)c4c3C2=O)NC(=O)/C(C)=C\C=C\[C@H](C)[C@H](O)[C@@H](C)[C@@H](O)[C@@H](C)[C@H](OC(C)=O)[C@@H]1C [RIFAXIMIN],53.8
21,Cc1cc(N)c2ccccc2[n+]1CCCCCCCCCC[n+]1c(C)cc(N)c2ccccc21 [DEQUALINIUM CHLORIDE],10.5
22,OC(CCN1CCCC1)(c1ccccc1)C1CCCCC1 (stereo not shown) [PROCYCLIDINE HYDROCHLORIDE],95.6
23,C[C@H](CCC(=O)O)[C@H]1CC[C@H]2[C@@H]3[C@@H](O)C[C@@H]4C[C@H](O)CC[C@]4(C)[C@H]3CC[C@]12C [URSODIOL],24.6

# Same assay, conditions: drug 10 μM 1 h before FeSO4 25 or 50 μM; MAP-2 neurons after 24 h
row,SMILES,Drug % control (mean): number of neurons normalized to untreated control [%]
1,CCCc1nc(C(C)(C)O)c(C(=O)OCc2oc(=O)oc2C)n1Cc1ccc(-c2ccccc2-c2nnn[nH]2)cc1 [OLIVEESARTAN MEDOXOMIL],55.85
2,CN(C)CCOC(c1ccccc1)c1ccccc1.Cn1c(=O)c2[nH]c(Cl)nc2n(C)c1=O [DIMENHYDRINATE],36.53
3,Cc1cn([C@H]2C[C@H](N=[N+]=[N-])[C@@H](CO)O2)c(=O)[nH]c1=O [ZIDOVUDINE [AZT]],66.49
4,CC(C)NCC(O)COc1cccc2ccccc12.Cl (racemic) [PROPRANOLOL HYDROCHLORIDE (+/−)],66.49
